Measured values published in PMC6792352, “Limited Chemical Structural Diversity Found to Modulate Thyroid Hormone Receptor in the Tox21 Chemical Library” (Environmental Health Perspectives, 2019).
Where a name gives a salt, the structure may show the parent alone.

Test: in vitro
Conditions: rat, gh3-tre-luc cells

SMILES	CC50 at 24 h (AC50 (uM) modified / 1000)	other results
Cc1cc2c3c(c1)C(c1ccccc1)=N[C@@H](NC(=O)c1ccncc1)C(=O)N3CC2 [CI-1018]	> 90 µM	–
Cc1cc(SC2=C(O)C[C@@](CCc3ccc(N)cc3)(C(C)C)OC2=O)c(C(C)(C)C)cc1CO [CI-1029]	> 90 µM	–
Nc1cc2c3c(c1)C(c1ccccc1)=N[C@@H](NC(=O)c1cccnc1)C(=O)N3CC2 [CI-1044]	> 90 µM	–
Cc1nccn1-c1ccc(Sc2cccc(C3(C(N)=O)CCOCC3)c2)cc1 [CJ-013610]	42.6 µM	–
NC(=O)N(O)[C@@H]1C=C[C@H](Oc2cccc(Oc3ccc(F)cc3)c2)C1 [CJ-013790]	> 90 µM	–
O=C(O)c1cccc(C[C@@H]2COc3ccc(OCc4nc5cc(F)ccc5s4)cc3[C@@H]2O)c1 [CP-085958]	> 90 µM	–
O=C(O)C1(c2ccc3c(c2)OC[C@H](Cc2ccc(-c4ccccc4)cc2)[C@H]3O)CCCC1 [CP-105696]	50.9 µM	–
C[C@H](Cc1ccc(OCC(=O)O)cc1)NC[C@H](O)c1csc(C(F)(F)F)n1 [CP-114271]	> 90 µM	–
CCc1nn(C2CCCCC2)c2cc(C3(C#N)CCC(C(=O)O)CC3)ccc12 (stereo not shown) [CP-401387]	49.9 µM	–
CNCc1ccc(NC(=O)c2c[nH]c3c2C(=O)CCC3)cc1 [CP-409092]	> 90 µM	–
CCOc1cccc(C2(N3CCN(c4ccccc4)CC3)CCC(C)CC2)c1 (stereo not shown) [CP-422935]	> 90 µM	–
CC(C)(O)c1coc(S(=O)(=O)NC(=O)Nc2c3c(cc4c2CCC4)CCC3)c1 [CP-456773]	> 90 µM	–
CC(C)(O)c1ccc(CNC(=O)c2cccnc2Oc2ccc(F)cc2)cc1 [CP-457677]	> 90 µM	–
CCOc1ccc2[nH]cc(C(=O)NCc3ccccc3)c(=O)c2n1 [CP-457920]	> 90 µM	–
CC(C)c1cccc(C(C)C)c1NC(=O)NS(=O)(=O)c1cc(C(C)(C)O)co1 [CP-465394]	> 90 µM	–
O=C(O)CCN(C1(C(=O)NO)CCCC1)S(=O)(=O)c1ccc(Oc2ccc(F)cc2)cc1 [CP-471358]	> 90 µM	–
O=C(NO)C1(NS(=O)(=O)c2ccc(Oc3ccc(F)cc3)cc2)CCOCC1 [CP-544439]	> 90 µM	–
CNCc1cc(F)ccc1Oc1ccc(Cl)c(Cl)c1 [CP-607366]	77.7 µM	–
CNC(=O)[C@H]1O[C@@H](n2cnc3c(NCc4cc(Cl)ccc4OCc4cc(C)no4)ncnc32)[C@H](O)[C@@H]1N [CP-608039]	> 90 µM	–
CC(C)(O)c1ccc(CNC(=O)c2cccnc2Oc2ccc3nonc3c2)cc1 [CP-612372]	> 90 µM	–

SMILES	CC50 at 24 h (AC50 (uM) modified / 1000)	other results
Cc1cc(NC(=O)C(=O)O)cc(C)c1Oc1ccc(O)c2c1CCC2 [CP-634384]	> 90 µM	–
Cc1nc(C)nc(N2C[C@@H](C)N(c3ccnc([C@@H](C)O)n3)[C@@H](C)C2)n1 [CP-642931]	> 50 µM	–
C[C@@H](Oc1ccc(CNC(=O)c2cccnc2Oc2ccc3c(c2)OCO3)c(F)c1)C(=O)O [CP-671305]	> 90 µM	–
CC[C@H]1CC[C@H](NCc2cc3c(cc2OC)[C@H]2C[C@H]2C(=O)N3C)[C@H](c2ccccc2)N1 [CP-728663]	35.3 µM	–
CC(C)c1nnc2ccc(-c3ocnc3-c3cc(F)ccc3F)cn12 [CP-863187]	> 90 µM	–
C=CCN1C[C@H](C(=O)N(CCCN(C)C)C(=O)NCC)C[C@@H]2c3cccc4[nH]cc(c34)C[C@H]21 [Cabergoline]	5.04 µM	–
[Cl][Cd][Cl] [Cadmium chloride]	–	CC50 at 24 h (AC50 (uM) modified / 1000, Tox21_110001=Tox21_202229, viability, 1 nM T3 present, 24 h): 26.6 µM; CC50 at 24 h (AC50 (uM) modified / 1000, Tox21_110001=Tox21_303000, viability, 1 nM T3 present, 24 h): 32.6 µM
CCOC(=O)NNc1ccc(N(CC)CC(C)O)nn1 (stereo not shown) [Cadralazine]	> 50 µM	–
O=C(O)/C=C/c1ccc(O)c(O)c1 [Caffeic acid]	> 90 µM	–
C=C1CC[C@H](O)C/C1=C/C=C1\CCC[C@]2(C)[C@@H]([C@H](C)CCCC(C)(C)O)CC[C@@H]12 [Calcifediol]	11.5 µM	–
C=C1/C(=C\C=C2/CCC[C@]3(C)[C@@H]([C@H](C)/C=C/[C@@H](O)C4CC4)CC[C@@H]23)C[C@@H](O)C[C@@H]1O [Calcipotriene]	34.7 µM	–
C=C1/C(=C\C=C2/CCC[C@]3(C)[C@@H]([C@H](C)CCCC(C)(C)O)CC[C@@H]23)C[C@@H](O)C[C@@H]1O [Calcitriol]	20.1 µM	–
Nc1nc2c(c(=O)[nH]1)N(C=O)C(CNc1ccc(C(=O)N[C@@H](CCC(=O)O)C(=O)O)cc1)CN2 (stereo partly shown) [Calcium folinate pentahydrate]	> 20 µM	–
CC(C)(CO)[C@@H](O)C(=O)NCCCC(=O)O [Calcium hopantenate]	> 50 µM	–
CC(O)C(=O)O (stereo not shown) [Calcium lactate]	> 90 µM	–
CCCCCCC(C)(C)C(=O)O [Calcium neodecanoate]	> 90 µM	–
CC(C)(CO)[C@@H](O)C(=O)NCCC(=O)O [Calcium pantothenate]	> 50 µM	–
CC(C)OC(=O)Nc1ccc2[nH]c(-c3cscn3)nc2c1 [Cambendazole]	4.4 µM	–
CN(C)C(=O)COC(=O)Cc1ccc(OC(=O)c2ccc(NC(=N)N)cc2)cc1 [Camostat mesylate]	> 50 µM	–
C=C1[C@@H]2CC[C@@H](C2)C1(C)C [Camphene]	> 90 µM	–

SMILES	CC50 at 24 h (AC50 (uM) modified / 1000)	other results
CC1(C)[C@H]2CC[C@]1(C)C(=O)C2 [Camphor]	> 90 µM	–
CCN(CC)CCNC(C(=O)OCCC(C)C)c1ccccc1 (stereo not shown) [Camylofin]	> 50 µM	–
COc1ccc2c(c1OC)CN1CCc3cc4c(cc3[C@@H]1C2)OCO4 [Canadine]	> 20 µM	–
CCOc1nc2cccc(C(=O)OC(C)OC(=O)OC3CCCCC3)c2n1Cc1ccc(-c2ccccc2-c2nnn[nH]2)cc1 (stereo not shown) [Candesartan cilexetil]	31.1 µM	–
CCOc1nc2cccc(C(=O)O)c2n1Cc1ccc(-c2ccccc2-c2nnn[nH]2)cc1 [Candesartan]	34.4 µM	–
COCCOC[C@H](CC1(C(=O)N[C@H]2CC[C@@H](C(=O)O)CC2)CCCC1)C(=O)Oc1ccc2c(c1)CCC2 [Candoxatril]	> 90 µM	–
C=CC(=O)Nc1cc2c(Nc3ccc(F)c(Cl)c3)ncnc2cc1OCCCN1CCOCC1 [Canertinib]	4.7 µM	–
CCCCCc1cc(O)c2c(c1)OC(C)(C)c1ccc(C)cc1-2 [Cannabinol]	–	CC50 at 24 h (AC50 (uM) modified / 1000, Tox21_110001=Tox21_113486, viability, 1 nM T3 present, 24 h): 13.4 µM
C[C@]12CCC(=O)C=C1C=C[C@@H]1[C@@H]2CC[C@@]2(C)[C@H]1CC[C@@]2(O)CCC(=O)O [Canrenoate potassium]	> 20 µM	–
C[C@]12CCC(=O)C=C1C=C[C@@H]1[C@@H]2CC[C@@]2(C)[C@H]1CC[C@@]21CCC(=O)O1 [Canrenone]	> 50 µM	–
C[C@@]12C(=O)OC(=O)[C@]1(C)[C@H]1CC[C@@H]2O1 [Cantharidin]	2.01 µM	–
CC1=C(/C=C/C(C)=C/C=C/C(C)=C/C=C/C=C(C)/C=C/C=C(C)/C=C/C2=C(C)C(=O)CCC2(C)C)C(C)(C)CCC1=O [Canthaxanthin]	> 50 µM	–
CCCCCOC(=O)Nc1nc(=O)n([C@@H]2O[C@H](C)[C@@H](O)[C@H]2O)cc1F [Capecitabine]	> 50 µM	–
COc1cc(C(=O)NCCCCCC(=O)O)cc(OC)c1OC [Capobenic acid]	> 50 µM	–
O=C1CCCCCN1 [Caprolactam]	> 90 µM	–
O=C1CCCCCO1 [Caprolactone]	> 90 µM	–
CCCCCCCC(=O)Cl [Caprylyl chloride]	> 90 µM	–
COc1cc(CNC(=O)CCCC/C=C/C(C)C)ccc1O [Capsaicin]	> 90 µM	–
C[C@H](CS)C(=O)N1CCC[C@H]1C(=O)O [Captopril]	> 50 µM	–
CC(=O)c1ccc2c(c1)[C@H](NC(=O)c1ccc(F)cc1)[C@@H](O)C(C)(C)O2 [Carabersat]	51.8 µM	–
